{"source": "patent US8729088B2", "about": "“Toll-like receptor modulators and treatment of diseases” (The Regents of the University of California, priority 2009, dated 2014)", "key": {"Solubility observations": {"test": "Solubility observations", "type": "physicochemical"}, "[1]": {"tested_on": "pro-inflammatory cytokines (IL-6, TNF-α) in sera", "test": "In vivo kinetics of pro-inflammatory cytokine induction after intravenous injection", "parameters": "species or system mouse", "settings": "200 nmol per animal i.v.", "protocol": "The pharmacokinetics of pro inflammatory cytokine induction by TLR7 conjugates was examined using 6- to 8-week old C57BL/6 mice. […] Blood samples were collected 2, 4, 6, 24 or 48 hours after injections. Sera were separated and kept at −20° C. until use."}, "C57BL/6 mice [2]": {"tested_on": "C57BL/6 mice", "settings": "mouse, in vivo", "procedure": "(§1) Peritoneal cells were collected four hours after TG injection. Total cells were counted by haematocytometer and neutrophils were morphologically identified.\n(§2) 4 hours post TG injection total peritoneal cells were harvested and counted. Neutrophils were identified morphologically and counted.\n(§3) One day after the last treatment, mice received intraperitoneal injection of 2 ml thioglycollate medium. […] Three hours after the thioglycollate injection, neutrophil infiltration to the peritoneum was evaluated."}, "mice": {"tested_on": "mice", "settings": "cited from earlier work"}, "TLR7": {"tested_on": "TLR7", "test": "Cytokine induction in BMDM from wild type and TLR7 deficient mice", "type": "cell-based, mouse", "settings": "BMDM from TLR7 deficient mice", "protocol": "In vitro measurements of cytokine induction were performed using the mouse leukemic monocyte macrophage cell line, RAW264.7. […] BMDM were prepared from C57BL/6 and TLR7 deficient mice as described in Wu, C. C et al., (2007) “Immunotherapeutic activity of a conjugate of a Toll-like receptor 7 ligand”, Proc Natl Acad Sci USA 104, 3990-5.\nIn general, RAW264.7 cells or BMDM were incubated with various concentrations of conjugates for 18 hours at 37° C., 5% CO2 and culture supernatants were collected. The levels of cytokines (IL-6, IL-12 or TNF-α in the supernatants were determined by ELISA (BD Biosciences Pharmingen, La Jolla, Calif.) (Cho, H. J et al., “Immunostimulatory DNA-based vaccines induce cytotoxic lymphocyte activity by a T-helper cell-independent mechanism” [see comments], Nat Biotechnol 18, 509-14 (2000)), and the results presented in FIG. 2A-D. Data are mean±SEM of triplicates and are representative of three independent experiments. Minimum detection levels of these cytokines were 15 pg/mL."}, "C57BL/6 mice [3]": {"tested_on": "C57BL/6 mice", "test": "Thioglycolate induced peritonitis (peritoneal neutrophil infiltration)", "settings": "50 nmoles i.v. for three days before thioglycolate", "procedure": "as §1, §2, §3"}}}
{"compound": "COCCOc1nc(N)c2nc(O)n(Cc3ccccc3)c2n1", "note": "[SM, 9-benzyl-8-hydroxy-2-(2-methoxyethoxy) adenine, reference compound]", "values": [{"measurement": "solubility in aqueous solution", "setting": "Solubility observations", "value": "insoluble"}, {"measurement": "course of serum cytokine levels", "setting": "[1]", "value": "declined rapidly after 2 hours"}, {"measurement": "adverse reaction compared to TG", "setting": "C57BL/6 mice [2]", "value": "no additional adverse reaction"}, {"measurement": "adverse effects in mice", "setting": "mice; Hayashi et al. 2008", "value": "anorexic effects and hypothermia"}, {"measurement": "minimum dose that induced the anorectic reaction", "setting": "mice; mucosal administration", "value": 50, "unit": "nmoles per mice"}, {"measurement": "IL-12 and IL-6 induction", "setting": "TLR7", "value": "little or no IL-12 and IL-6"}, {"measurement": "neutrophils recruited to the peritoneum", "setting": "C57BL/6 mice [3]", "value": "reduction"}, {"measurement": "total cells recruited to the peritoneum", "setting": "C57BL/6 mice [3]", "value": "reduction"}]}
